Data as given in patent EP1220870B1, “METAL-BINDING COMPOUNDS AND USES THEREFOR” (DMI Biosciences, Inc., priority 1999, dated 2001).
No end group written: not given here.

Experiments:
Type in all cases: biochemical
[1] = target: T1, xanthine oxidase (Bos taurus, UniProt P80457); test: Uric acid production at 295 nm (check for interference with xanthine oxidase activity); details: concentration of 600 nM; data not shown
T1 construct: purchased Sigma Chemical Co
Protocol: Athar et al., Biochem. Mol. Biol. Int., 39(4):813-821 (1996); Ciuffi et al., Pharmacol Res., 38(4):279-287 (1998). This assay is similar to the SOD assay, except that NBT is not present. Instead, uric acid is assayed at 295 nm every 60 seconds for 5 minutes. […] Since superoxide is converted to hydrogen peroxide by the complex, this could help to explain why it is not effective at preventing hydroxyl radical production.

[2] = tested on: Superoxide radical; test: Superoxide radical production, NBT reduction with copper and ascorbate; details: 37°C, read at 560 nm at 5, 15, 30 and 60 minutes, maximum decreased for the 1:1 complex
Protocol: Superoxide radical production was measured in solutions containing the 1:1 or 2:1 tetrapeptide-copper complexes. The assay combined techniques from the TBA assay and the xanthine oxidase assay. NBT was added to all test tubes in order to quantitate its reduction by superoxide radical. The samples also contained ascorbate and copper and were incubated at 37°C. At 5,15,30 and 60 minutes, the samples were removed from the incubator and read at 560 nm. In the sample containing the 2:1 tetrapeptide-copper complex, NBT reduction increased over time and reached a maximum at 3 0 minutes.

[3] = target: Superoxide radical; test: Superoxide dismutase (SOD) activity, xanthine oxidase/NBT assay; details: for SOD activity (inhibition of NBT reduction): xanthine oxidase assay, pH 10.2, 1.2 µM EDTA
Protocol: The SOD activity of copper complexes of the tetrapeptide L-Asp L-Ala L-His L-Lys [SEQ ID NO:1] was assayed. Superoxide radicals were produced using the xanthine oxidase assay of Beauchamp and Fridovich, Anal. Biochem., 44:276-287 (1971). Xanthine oxidase converts xanthine into uric acid, with oxygen acting as an electron acceptor. This causes superoxide radical to be produced. Superoxide radical is able to reduce nitro blue tetrazolium (NBT). Reduced NBT has a λmax of 560 nm. It is known that copper inhibits xanthine oxidase activity (Konstantinova et al., Free Rad. Res. Comms., 12-13:215-220 (1991)), so all experiments containing copper also contained ethylenediaminetetracetic acid (EDTA), a known copper chelator.
To perform the assay for SOD activity, 0.1 mM xanthine (Sigma Chemical Co.), 25 µM NBT (Sigma Chemical Co.), 50 mM sodium carbonate, and 1.2 µM EDTA (Sigma Chemical Co.), were mixed in a cuvette (all final concentrations, final pH 10.2). The reaction was started by the addition of various amounts of a tetrapeptide-copper complex (tetrapeptide/copper ratios of 1:1 and 2:1) and 20 nM xanthine oxidase (Sigma Chemical Co.). The tetrapeptide-copper complex was prepared by mixing the tetrapeptide and copper (as CuCl2) and allowing the mixture to incubate for 15 minutes at room temperature immediately before addition to the cuvette. The samples were read at time 0 and every 60 seconds for five minutes at 560 nm.

[4] = tested on: hydroxyl radicals; test: Inhibition of hydroxyl radical production, Cu(II)/ascorbic acid deoxyribose TBA assay (Example 10); details: compound/copper 2:1; for % Inhibition: percent decrease in absorbance compared to buffer alone
Protocol: The ability of the compounds listed above to inhibit the generation of hydroxyl radicals was tested as described in Gutteridge and Wilkins, Biochim. Biophys. Acta, 759:38-41 (1983). Briefly, Cu(II) and ascorbic acid were mixed causing the generation of hydroxyl radicals. Then, deoxyribose was added, and the hydroxyl radicals, if present, attacked the deoxyribose to produce fragments. […]. Thus, absorbance at 532 nm is a measure of the damage to deoxyribose and, therefore, of hydroxyl radical formation.
To perform the assay, CuCl2 in buffer (20 mM KH2PO4 buffer, pH 7.4) and either one of the test compounds in buffer or buffer alone were added to test tubes (final concentration of CuCl2 was 10µM). The test tubes were incubated for 15 minutes at room temperature. Then, 0.5 mM ascorbic acid in buffer and 1.9 mM 2-deoxy-D-ribose in buffer were added to each test tube, and the test tubes were incubated for 1 hour at 37°C. Finally, 1 ml of 1% (w/v) TBA in 50 mM NaOH and 1 ml of concentrated acetic acid were added to each test tube, and the test tubes were incubated in boiling water for 15 minutes. After the test tubes had cooled for 15 minutes, the absorbance at 532 nm was read.

T1 sequence (P80457 whole entry): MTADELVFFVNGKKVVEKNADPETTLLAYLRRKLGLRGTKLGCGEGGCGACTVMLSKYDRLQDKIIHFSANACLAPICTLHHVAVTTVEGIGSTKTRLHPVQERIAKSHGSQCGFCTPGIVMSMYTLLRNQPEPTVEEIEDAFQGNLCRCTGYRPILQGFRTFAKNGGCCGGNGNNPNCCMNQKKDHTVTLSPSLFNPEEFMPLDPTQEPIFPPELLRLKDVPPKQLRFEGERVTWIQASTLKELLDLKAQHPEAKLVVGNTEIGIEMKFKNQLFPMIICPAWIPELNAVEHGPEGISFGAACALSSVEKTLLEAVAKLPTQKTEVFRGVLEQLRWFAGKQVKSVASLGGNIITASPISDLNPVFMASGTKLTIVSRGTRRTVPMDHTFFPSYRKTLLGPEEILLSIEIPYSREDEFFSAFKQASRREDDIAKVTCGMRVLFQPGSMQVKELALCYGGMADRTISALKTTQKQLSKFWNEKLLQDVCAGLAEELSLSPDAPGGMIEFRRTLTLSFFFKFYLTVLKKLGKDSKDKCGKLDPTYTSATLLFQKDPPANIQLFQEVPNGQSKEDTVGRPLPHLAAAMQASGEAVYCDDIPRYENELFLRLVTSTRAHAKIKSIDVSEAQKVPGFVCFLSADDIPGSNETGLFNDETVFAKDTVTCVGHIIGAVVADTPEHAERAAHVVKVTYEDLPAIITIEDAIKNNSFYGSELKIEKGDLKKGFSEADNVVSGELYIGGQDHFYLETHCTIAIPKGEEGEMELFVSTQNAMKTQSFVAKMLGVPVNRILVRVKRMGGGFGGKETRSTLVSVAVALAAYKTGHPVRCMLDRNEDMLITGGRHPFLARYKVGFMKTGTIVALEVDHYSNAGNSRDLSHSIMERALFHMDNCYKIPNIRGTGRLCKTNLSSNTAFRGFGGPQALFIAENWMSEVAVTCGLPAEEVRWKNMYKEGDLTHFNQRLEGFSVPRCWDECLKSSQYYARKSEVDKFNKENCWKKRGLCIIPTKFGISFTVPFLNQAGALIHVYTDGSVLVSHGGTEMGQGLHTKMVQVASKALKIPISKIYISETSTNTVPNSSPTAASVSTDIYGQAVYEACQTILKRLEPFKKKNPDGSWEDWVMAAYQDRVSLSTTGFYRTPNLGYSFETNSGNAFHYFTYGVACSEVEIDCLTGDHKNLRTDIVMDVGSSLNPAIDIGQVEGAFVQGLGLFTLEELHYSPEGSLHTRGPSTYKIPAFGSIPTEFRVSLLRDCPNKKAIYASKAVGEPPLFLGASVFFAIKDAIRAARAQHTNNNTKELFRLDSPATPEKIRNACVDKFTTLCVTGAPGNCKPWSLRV

inhibition of uric acid production [1] [%]	times less effective than SOD itself, based on IC50 values ([3]; tetrapeptide/copper ratio 1:1, IC50 = amount that gives 50% inhibition)	SOD activity (inhibition of NBT reduction) [3]	SOD activity (inhibition of NBT reduction) ([3]; listed as complex of the tetrapeptide with copper at a ratio of 1:1)	Compound	time at which NBT reduction reached a maximum [2] [min]	% Inhibition [4]	% Inhibition ([4]; listed as Histindine) [%]	Absorbance at 532 nm ([4]; second absorbance column (copper only 0.954))
11	about 500 times	true SOD activity	have SOD activity	1:1 tetrapeptide-copper complex: complex of L-Asp L-Ala L-His L-Lys and copper (as CuCl2), tetrapeptide/copper ratio 1:1 (DAHK; also: copper complex, peptide:Cu 1:1 (as CuCl2); UniProt P02768 25-28, looked up, fragment)	60			
		no SOD activity		2:1 tetrapeptide-copper complex: complex of L-Asp L-Ala L-His L-Lys and copper (as CuCl2), tetrapeptide/copper ratio 2:1 (DAHK; also: copper complex, peptide:Cu 2:1 (as CuCl2); UniProt P02768 25-28, looked up, fragment)				
				N[C@@H](Cc1c[nH]cn1)C(=O)O [Histidine, histidine]		about 20%	20.3	0.760
